The text below walks through data of patent publication US11773094B2, “Farnesoid X receptor agonists and uses thereof” (Metacrine, Inc., priority 2018, dated 2023).

A word on the EC50: it is the concentration at which the effect is half-maximal. Lower therefore signals a more potent agent.

This experiment deals with T1, hFXR (Homo sapiens, UniProt Q96RI1).
T1 construct: expressed in transfected cells; host or cells: CV-1 cells
T1 sequence (Q96RI1 1-486): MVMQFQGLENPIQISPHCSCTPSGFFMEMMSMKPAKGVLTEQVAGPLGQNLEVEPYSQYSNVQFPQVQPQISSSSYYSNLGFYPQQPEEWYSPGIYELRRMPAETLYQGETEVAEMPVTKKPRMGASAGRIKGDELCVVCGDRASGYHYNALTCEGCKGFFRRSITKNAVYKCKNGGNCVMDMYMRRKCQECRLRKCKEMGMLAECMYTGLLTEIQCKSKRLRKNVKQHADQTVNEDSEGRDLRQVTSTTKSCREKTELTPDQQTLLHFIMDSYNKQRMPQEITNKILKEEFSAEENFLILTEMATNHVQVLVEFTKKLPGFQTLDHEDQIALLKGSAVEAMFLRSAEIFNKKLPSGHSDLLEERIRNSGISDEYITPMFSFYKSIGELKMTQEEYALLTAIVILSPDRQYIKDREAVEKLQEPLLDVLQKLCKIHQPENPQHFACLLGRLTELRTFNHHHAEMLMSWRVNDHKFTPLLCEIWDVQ
T1 sequence (P19793 1-462 partner): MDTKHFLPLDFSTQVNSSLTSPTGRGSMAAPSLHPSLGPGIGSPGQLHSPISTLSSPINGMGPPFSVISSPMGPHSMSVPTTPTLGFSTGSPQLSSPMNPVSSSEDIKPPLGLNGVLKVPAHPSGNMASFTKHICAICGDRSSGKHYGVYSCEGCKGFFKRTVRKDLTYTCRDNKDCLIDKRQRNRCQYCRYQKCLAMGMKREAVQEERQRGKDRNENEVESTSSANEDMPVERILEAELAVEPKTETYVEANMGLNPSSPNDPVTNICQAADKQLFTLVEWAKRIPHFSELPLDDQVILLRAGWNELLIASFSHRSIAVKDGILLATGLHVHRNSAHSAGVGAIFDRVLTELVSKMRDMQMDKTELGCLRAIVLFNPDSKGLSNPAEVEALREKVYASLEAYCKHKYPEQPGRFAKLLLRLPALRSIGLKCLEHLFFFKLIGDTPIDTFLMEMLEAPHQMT
The experiment can be described thus: In Vitro FXR Assay (TK): TK-ECRE-luc reporter in transfected CV-1 cells. It is filed as cell-based. To be noted: CV-1 cells transfected with hFXR, hRXR, pCMX-YFP, 18 hrs incubation, luminescence. As for the experimental part:
Example B-1: In Vitro FXR Assay (TK)
CV-1 cells were seeded at a density of 2,000,000 cells in a T175 flask with DMEM+10% charcoal double-stripped FBS and incubated at 37° C. in 5% CO2 for 18 h (O/N).
After 18 h of incubation, the medium in the T175 flask was changed with fresh DMEM+10% charcoal super-stripped serum. In a polypropylene tube, 2500 μL OptiMEM (Life Technologies, Cat #31985-062) was combined with expression plasmids for hFXR, hRXR, TK-ECRE-luc and pCMX-YFP. The tube was then briefly vortexed and incubated at room temperature for 5 minutes. Transfection reagent (X-tremeGENE HP from Roche, Cat #06 366 236 001) was added to the OptiMEM/plasmid mixture vortexed and incubated at room temperature for 20 minutes. Following incubation, the transfection reagent/DNA mixture complex was added to cells in the T175 flask and the cells were incubated at 37° C. in 5% CO2 for 18 h (O/N).
Compounds were serially diluted in DMSO and added to transfected CV-1 cells. The cells were then incubated for 18 hrs. The next day cells were lysed and examined for luminescence.
In the case of `COc1c(C)cc(C23CCC(CN(c4cc(-c5cnn(C(C)(C)C)c5)ccn4)C(=O)[C@H]4CC[C@H](OC(=O)N5CC(O)C5)CC4)(CC2)CC3)cc1C` [Compound 3.04, 4-((4-(1-(tert-Butyl)-1H-pyrazol-4-yl)pyridin-2-yl)((4-(4-methoxy-3,5-dimethylphenyl)bicyclo[2.2.2]octan-1-yl)methyl)carbamoyl) (trans-cyclohexyl) 3-hydroxyazetidine-1-carboxylate], the EC50 was ≤ 10 nM.
Compound `COc1ccc(C23CCC(CN(c4cc(-c5cnc(C(C)(C)C)s5)ccn4)C(=O)[C@H]4CC[C@H](OC(=O)N5CCC(N(C)C)C5)CC4)(CC2)CC3)cc1C` (stereo partly drawn) [Compound 2.09, 4-((4-(2-(tert-Butyl)thiazol-5-yl)pyridin-2-yl)((4-(4-methoxy-3-methylphenyl)bicyclo[2.2.2]octan-1-yl)methyl)carbamoyl)cyclohexyl 3-(dimethylamino)pyrrolidine- trans-1-carboxylate] showed an EC50 of 10 to 1000 nM.
To `CCC(C)(C)n1cc(-c2ccnc(N(CC34CCC(c5ccc(OC)c(C)c5)(CC3)CC4)C(=O)[C@H]3CC[C@H](OC(=O)N4CC(O)C4)CC3)c2)cn1` [Compound 4, 4-(((4-(4-Methoxy-3-methylphenyl)bicyclo[2.2.2]octan-1-yl)methyl)(4-(1-(tert-pentyl)-1H-pyrazol-4-yl)pyridin-2-yl)carbamoyl) cyclohexyl trans-3-hydroxyazetidine-1-carboxylate] belongs ≤ 10 nM; to `COc1ccc(C23CCC(CN(c4cc(-c5cnc(C(C)(C)C)s5)ccn4)C(=O)[C@H]4CC[C@H](OC(=O)N5CC[C@H]5CO)CC4)(CC2)CC3)cc1C` [Compound 2.10, (S)-4-((4-(2-(tert-Butyl)thiazol-5-yl)pyridin-2-yl)((4-(4-methoxy-3-methylphenyl)bicyclo[2.2.2]octan-1-yl)methyl)carbamoyl)cyclohexyl 2-(hydroxymethyl)azetidine- trans-1-carboxylate], ≤ 10 nM; to `CCC(C)(C)n1cc(-c2ccnc(N(CC34CCC(c5ccc(OC)c(C)c5)(CC3)CC4)C(=O)[C@H]3CC[C@H](OC(=O)N4CCC(O)CC4)CC3)c2)cn1` [Compound 4.02, 4-(((4-(4-Methoxy-3-methylphenyl)bicyclo[2.2.2]octan-1-yl)methyl)(4-(1-(tert-pentyl)-1H-pyrazol-4-yl)pyridin-2-yl)carbamoyl) cyclohexyl trans-4-hydroxypiperidine-1-carboxylate], ≤ 10 nM.
The value for `COc1ccc(C23CCC(CN(c4cc(-c5cnc(C(C)(C)C)s5)ccn4)C(=O)[C@H]4CC[C@H](OC(=O)NCCO)CC4)(CC2)CC3)cc1C` [Compound 2.06, 4-((4-(2-(tert-Butyl)thiazol-5-yl)pyridin-2-yl)((4-(4-methoxy-3-methylphenyl)bicyclo[2.2.2]octan-1-yl)methyl)carbamoyl)cyclohexyl (2-hydroxyethyl)trans-carbamate] was ≤ 10 nM; that for `COc1ccc(C23CCC(CN(c4cc(-c5cnn(C(C)(C)C)c5)ccn4)C(=O)[C@H]4CC[C@H](OC(=O)NC5CCOCC5)CC4)(CC2)CC3)cc1C` [Compound 3.01, 4-((4-(1-(tert-Butyl)-1H-pyrazol-4-yl)pyridin-2-yl)((4-(4-methoxy-3-methylphenyl)bicyclo[2.2.2]octan-1-yl)methyl)carbamoyl) cyclohexyl (tetrahydro-2H-pyran-4-yl)trans-carbamate] was ≤ 10 nM.
For the compound `CCC(C)(C)n1cc(-c2ccnc(N(CC34CCC(c5ccc(OC)c(C)c5)(CC3)CC4)C(=O)[C@H]3CC[C@H](OC(=O)NCCCO)CC3)c2)cn1` [Compound 4.03, 4-(((4-(4-Methoxy-3-methylphenyl)bicyclo[2.2.2]octan-1-yl)methyl)(4-(1-(tert-pentyl)-1H-pyrazol-4-yl)pyridin-2-yl)carbamoyl) cyclohexyl trans-(3-hydroxypropyl)carbamate], the concentration for a half-maximal effect (EC50) was ≤ 10 nM.
The value for `COc1ccc(C23CCC(CN(c4cc(-c5coc(C(C)(C)C)n5)ccn4)C(=O)[C@H]4CC[C@H](OC(=O)N5CC(CO)C5)CC4)(CC2)CC3)cc1C` [Compound 2.15, 4-((4-(2-(tert-Butyl)oxazol-4-yl)pyridin-2-yl)((4-(4-methoxy-3-methylphenyl)bicyclo[2.2.2]octan-1-yl)methyl)carbamoyl) (trans-cyclohexyl) 3-(hydroxymethyl)azetidine-1-carboxylate] was ≤ 10 nM; that for `CCC(C)(CC)n1cc(-c2ccnc(N(CC34CCC(c5ccc(OC)c(C)c5)(CC3)CC4)C(=O)[C@H]3CC[C@H](OC(=O)N4CC(O)C4)CC3)c2)cn1` [Compound 4.04, 4-(((4-(4-Methoxy-3-methylphenyl)bicyclo[2.2.2]octan-1-yl)methyl)(4-(1-(3-methylpentan-3-yl)-1H-pyrazol-4-yl)pyridin-2-yl)carbamoyl)cyclohexyl trans-3-hydroxyazetidine-1-carboxylate] was ≤ 10 nM.
Regarding `COc1ccc([C@H]2CC[C@H](CN(c3cc(-c4cnc(C(C)(C)C)s4)ccn3)C(=O)[C@H]3CC[C@H](OC(=O)NC4CCOCC4)CC3)CC2)cc1C` [Compound 1], the concentration for a half-maximal effect (EC50) was 10 to 1000 nM.
Regarding `COc1ccc(C23CCC(CN(c4cccc(-c5cnn(C(C)(C)C)c5)n4)C(=O)[C@H]4CC[C@H](OC(=O)N5CC(O)C5)CC4)(CC2)CC3)cc1C` [Compound 1.15, 4-((6-(1-(tert-Butyl)-1H-pyrazol-4-yl)pyridin-2-yl)((4-(4-methoxy-3-methylphenyl)bicyclo[2.2.2]octan-1-yl)methyl)carbamoyl) (trans-cyclohexyl) 3-hydroxyazetidine-1-carboxylate], the EC50 lay in the range of 10 to 1000 nM.
To `COc1ccc(C23CCC(CN(c4cc(-c5coc(C(C)(C)C)n5)ccn4)C(=O)[C@H]4CC[C@H](OC(=O)NC5COC5)CC4)(CC2)CC3)cc1C` [Compound 2.18, 4-((4-(2-(tert-Butyl)oxazol-4-yl)pyridin-2-yl)((4-(4-methoxy-3-methylphenyl)bicyclo[2.2.2]octan-1-yl)methyl)carbamoyl) (trans-cyclohexyl) oxetan-3-ylcarbamate] belongs 10 to 1000 nM; to `COc1ccc([C@H]2CC[C@H](CN(c3cc(-c4coc(C(C)(C)C)n4)ccn3)C(=O)[C@H]3CC[C@H](OC(=O)N4CC(O)C4)CC3)CC2)cc1C` [Compound 1.04, trans-4-((4-(2-(tert-Butyl)oxazol-4-yl)pyridin-2-yl)(((trans)-4-(4-methoxy-3-methylphenyl)cyclohexyl)methyl)carbamoyl) cyclohexyl 3-hydroxyazetidine-1-carboxylate], 10 to 1000 nM.
On to `COc1ccc(C23CCC(CN(c4cc(-c5cnn(C(C)(C)C)c5)ccn4)C(=O)[C@H]4CC[C@H](OC(=O)N5CCC(N(C)C)C5)CC4)(CC2)CC3)cc1C` (stereo partly drawn) [Compound 2.26, 4-((4-(1-(tert-Butyl)-1H-pyrazol-4-yl)pyridin-2-yl)((4-(4-methoxy-3-methylphenyl)bicyclo[2.2.2]octan-1-yl)methyl)carbamoyl)cyclohexyl 3-(dimethylamino)pyrrolidine- trans-1-carboxylate], for which the EC50 is ≤ 10 nM.
With `COc1ccc([C@H]2CC[C@H](CN(c3cc(-c4cnc(C(C)(C)C)s4)ccn3)C(=O)[C@H]3CC[C@H](OC(=O)N4CCC(O)CC4)CC3)CC2)cc1C` [Compound 1.03, trans-4-((4-(2-(tert-Butyl)thiazol-5-yl)pyridin-2-yl)(((trans)-4-(4-methoxy-3-methylphenyl)cyclohexyl)methyl)carbamoyl) cyclohexyl 4-hydroxypiperidine-1-carboxylate], the EC50 lay in the range of 10 to 1000 nM.
To `COc1ccc(C23CCC(CN(c4cc(-c5cnn(C(C)(C)C)c5)ccn4)C(=O)[C@H]4CC[C@H](OC(=O)N5CCC(O)CC5)CC4)(CC2)CC3)cc1C` [Compound 2.27, 4-((4-(1-(tert-Butyl)-1H-pyrazol-4-yl)pyridin-2-yl)((4-(4-methoxy-3-methylphenyl)bicyclo[2.2.2]octan-1-yl)methyl)carbamoyl)cyclohexyl 4-hydroxypiperidine-trans-1-carboxylate] belongs ≤ 10 nM.
